The text below walks through data of patent publication US20260345742A1, “SYNTHETIC SURFACTANTS FOR INHIBITING CORONAVIRUS INFECTION” (priority 2022, published 2026).

The target in one data set is ACE2 (Homo sapiens, UniProt Q9BYF1). The data set is described as follows: SPR binding (Biacore T200) of ACE2 to chip-linked biotinylated B-YL.
The nature of data set [1]: Aqueous solution solubility. It counts as physicochemical. The following applies: stated as the reason for biotinylation.
Another data set addresses SARS-CoV-2 RBD (Severe acute respiratory syndrome coronavirus 2, UniProt P0DTC2). Briefly: SPR binding (Biacore T200) of SARS-CoV-2 RBD to chip-linked biotinylated B-YL. The procedure: FIG. 3. Surface plasmon resonance (SPR) sensorgrams of rbCovid-19-RBD protein construct and human ACE2 receptor binding to immobilized B-YL peptide. The B-YL peptide was biotinylated to facilitate attachment to the Biacore chip as described in Methodology. Solutions of 1 μM recombinant protein in HBS-EP buffer (10 mM Hepes, pH 7.4, 150 mM NaCl, 3 mM EDTA, 0.005% surfactant P20) were then flowed over the respective chip-linked peptides. The concentration dependent binding of the viral RBD construct (A) and the human ACE-2 receptor (B) to the B-YL lung surfactant peptide are shown with the SPR response indicated in relative response units (RU) on the graph's Y-axis.
One of the best in vitro determinations of the binding of proteins and peptides to one another is by surface plasmon resonance (SPR). This technique allows the direct measurement of the binding of a peptide or protein by attaching one protein to a sensor chip surface and flowing a solution containing a second protein over the surface. The binding affinities derived from such measurements are very similar to those observed in vivo.
The binding affinity of the B-YL lung surfactant peptide to the coronavirus recombinant spike protein construct of SARS-CoV-2 (viral spike protein amino acid sequence) that included the Receptor Binding Domain (RBD) was measured with SPR spectroscopy using a Biacore T200 system (GE Healthcare Bio-Sciences Corp, Piscataway, NJ 08855).
B-YL peptide binding to the recombinant SARS-CoV-2 RBD domain dissolved in a series of seven concentrations (1,000, 500, 250, 125, 62.5, 31.25 and 0 nM) in the analyte and was determined from the sensorgrams, in which arbitrary response units (RUS) are recorded as a function of time.
In Table 1, association and dissociation kinetic rate constants (kon, koff) and equilibrium dissociation constants (KD) were calculated from surface plasmon resonance (SPR) kinetic measurements for aqueous SARS-CoV-2 RBD expressed protein flowing past B-YL surfactant peptide on the Biacore chip. The recombinant SARS-CoV-2 RBD protein was dissolved in running buffer and was flowed past the sensor chip with a BiocoreT200 system (Methods). Kinetic rate constants and equilibrium dissociation constants were determined from curve fitting analysis of SPR traccs.
The binding affinities of the B-YL lung surfactant peptide to the Angiotensin-Converting Enzyme 2 (ACE-2) receptor recombinant construct (human amino acid sequence) and the coronavirus recombinant spike protein construct of Covid-19 (viral spike protein amino acid sequence) that included the Receptor Binding Domain (RBD) were measured with surface plasmon resonance (SPR) spectroscopy using a Biacore T200 system (GE Healthcare Bio-Sciences Corp, Piscataway, NJ 08855).
The SPR binding study was accomplished by associating the ligand (B-YL peptide) immobilized on the SPR sensor surface, and the solute containing the ACE-2 or the Covid-19 protein construct was then flowed past the sensor linked molecule. The binding of the solute to the sensor surface ligand results in an evanescent sensor response, is measured in Response Units (RU) that are proportional to the bound mass.
In Table 3, Association and dissociation kinetic rate constants (kon, koff) and equilibrium dissociation constants (KD) were calculated from surface plasmon resonance (SPR) kinetic measurements for aqueous RBD, and ACE2 flowing past BYL attached to a Biacore chip. Proteins were dissolved in running buffer (10 mM HEPES, 150 mM NaCl, 3 mM EDTA, 0.005% Surfactant P20, pH 7.4) and were flowed past biotin linked B-YL peptide construct on a CSM sensor chip with a Biacore system (Methodology). Kinetic rate constants and equilibrium dissociation constants were determined from curve fitting analysis of SPR traces.

Read-outs that look alike come from different tables or passages of the source. Ends that are not written are not given here.

Sequence of ACE2 (Q9BYF1 18-805): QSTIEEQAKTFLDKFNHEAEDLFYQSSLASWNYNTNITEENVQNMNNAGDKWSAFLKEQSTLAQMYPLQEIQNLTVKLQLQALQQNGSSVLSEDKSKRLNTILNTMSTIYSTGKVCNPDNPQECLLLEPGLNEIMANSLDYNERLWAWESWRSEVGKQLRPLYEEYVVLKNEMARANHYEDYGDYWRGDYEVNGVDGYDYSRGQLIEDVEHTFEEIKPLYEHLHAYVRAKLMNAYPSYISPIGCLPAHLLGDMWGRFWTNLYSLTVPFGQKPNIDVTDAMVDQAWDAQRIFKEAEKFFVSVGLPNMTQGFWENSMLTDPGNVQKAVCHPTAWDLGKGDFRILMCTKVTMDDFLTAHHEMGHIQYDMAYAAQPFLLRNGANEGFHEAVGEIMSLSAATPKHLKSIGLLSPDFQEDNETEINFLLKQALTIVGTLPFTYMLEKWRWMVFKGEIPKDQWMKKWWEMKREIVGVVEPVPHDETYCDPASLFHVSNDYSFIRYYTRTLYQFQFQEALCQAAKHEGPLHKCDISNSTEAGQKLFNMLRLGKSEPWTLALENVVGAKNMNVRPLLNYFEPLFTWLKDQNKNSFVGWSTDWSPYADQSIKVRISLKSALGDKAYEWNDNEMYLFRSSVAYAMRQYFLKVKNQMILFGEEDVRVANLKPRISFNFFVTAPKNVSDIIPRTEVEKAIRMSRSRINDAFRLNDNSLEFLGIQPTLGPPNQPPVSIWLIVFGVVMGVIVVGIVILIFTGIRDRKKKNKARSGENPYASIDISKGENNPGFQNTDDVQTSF

Regarding “FPIPLPYYWLYRALIKRIQALIPKGGRLLPQLVYRLVLRYS [B-YL]”, the Kd at ACE2 turned out to be 4.37 µM; at SARS-CoV-2 RBD (RBD(wt) - B-YL, expt. data - SPR (Table 2)), 57 µM; on SARS-CoV-2 RBD (Table 1, aqueous SARS-CoV-2-RBD over chip-associated biotinylated B-YL, HBS-EP pH 7.4, 37 °C, KD=koff/kon), 56.9 µM; on SARS-CoV-2 RBD (Table 3, aqueous RBD over chip-linked B-YL, pH 7.4, 37 °C, KD=koff/kon), 57 µM. Further, the koff on ACE2 (pH 7.4) is 0.013 s⁻¹; on SARS-CoV-2 RBD, 5.08 × 10^−02 1/s; at SARS-CoV-2 RBD (pH 7.4), 0.0508 s⁻¹. The kon was 2980 M⁻¹ s⁻¹ on ACE2 (pH 7.4); 890 M⁻¹ s⁻¹ on SARS-CoV-2 RBD (pH 7.4, Table 1, aqueous SARS-CoV-2-RBD over chip-associated biotinylated B-YL, HBS-EP pH 7.4, 37 °C); 892 M⁻¹ s⁻¹ at SARS-CoV-2 RBD (pH 7.4, Table 3, aqueous RBD over chip-linked B-YL, pH 7.4, 37 °C). Also, the aqueous solution solubility entry in data set [1] is recorded as “limited aqueous solution solubility”.

A word on the Kd: it is the equilibrium constant for the complex coming apart. Read a low Kd as tighter binding. For orientation: koff means a measure of how fast the partners let go of each other. As usually defined, the kon is the rate constant with which the complex forms. Low readings indicate slower complex formation, high ones faster complex formation.
